Literature values in publication PMC9710334 (BMJ Open Gastroenterology, 2022).

B1: vantictumab: Wnt pathway inhibitor (antibody, chains of the INN, looked up, V domains shown)
VH: EVQLVESGGGLVQPGGSLRLSCAASGFTFSHYTLSWVRQAPGKGLEWVSVISGDGSYTYYADSVKGRFTISSDNSKNTLYLQMNSLRAEDTAVYYCARNFIKYVFANWGQGTLVTVSS
VL: DIELTQPPSVSVAPGQTARISCSGDNIGSFYVHWYQQKPGQAPVLVIYDKSNRPSGIPERFSGSNSGNTATLTISGTQAEDEADYYCQSYANTLSLVFGGGTKLTVL

Legend:
[1] = test system: patients with PBC; conditions: approximately ref 1 3; cited from earlier work
[2] = test system: treated patients; conditions: treated patients ref 37 38; cited from earlier work

| Molecule | patients without an optimal biochemical response [1] | risk for fragility fractures [2] |
| --- | --- | --- |
| C[C@H](CCC(=O)O)[C@H]1CC[C@H]2[C@@H]3[C@@H](O)C[C@@H]4C[C@H](O)CC[C@]4(C)[C@H]3CC[C@]12C [UDCA, ursodeoxycholic acid] | 30%–40% |  |
| B1 |  | increased risk for fragility fractures |
